Where two headings read alike, the source gives them in different places.
What was measured:
SCLC cell line H82 = test: H82 cell proliferation with subtype-selective mAChR antagonists; format: cell-based, human
Procedure: (§1) For in vitro cell proliferation assays, cells were suspended at a concentration of 50,000 cells/ml and pipetted up and down to break up cell clumps. 100 μl cell suspension was added to each well of a 96-well plate. 100 μl darifenacin at concentrations of 2×10^−5, 2×10^−6, 2×10^−7, 2×10^−8, 2×10^−9 M and vehicle control were then added to wells. Every three days, half the volume of the media was changed and at 0, 3, 6, 9 and 12 days, cell number was determined with the Cell-Titer Blue reagent (Promega, Madison Wis.) which measures the production of the fluorescent product of resorufin from resazurin by metabolically active cells.

H82 cells [1] = test: H82 SCLC tumor growth in nude mice, subcutaneous minipump; format: in vivo, mouse
Procedure: Mice (NU/NU, Charles River Laboratories) were injected with SCLC tumor cells (NCI-H82 cells, American Type Culture Collection (ATCC); Manassas, Va.), treated with drug and tumor growth monitored. The H82 cells express M3 muscarininc receptor (see Song et al., Cancer Res. 63:214-21, 2003). Nude mice, 5-7 weeks old were housed in a pathogen-free room in microisolators with autoclaved bedding, and fed autoclaved rodent chow and water.
H82 cells were first grown in RPMI-1640+ITS (insulin (5 μg/ml), transferrin (5 μg/ml), sodium selenite (5 ng/ml)). Cells were collected, centrifuged and resuspended in fresh RPMI-1640+ITS at a concentration of 5×10^6 cell/0.25 ml. Cells were then mixed with an equal volume of matrigel (BD Biosciences) to give a final concentration of 5×10^6 cell/0.5 ml and 0.5 ml of this cell suspension was then injected subcutaneously into the right flank of each mouse.
(§2) Tumors were allowed to grow for one week, then drug administration was initiated and continued for the next 4 weeks. Drugs were administered by subcutaneously-implanted osmotic minipumps (Alzet model# 2004). Atropine and darifenacin were dissolved in 50% DMSO/50% phosphate-buffered saline. Atropine was delivered at a dose of 10 mg/kg per day; darifenacin (Novartis Pharma AG, Basel, Switzerland) was delivered at doses of 0.3, 1.0 and 3.0 mg/kg per day. Control animals received minipumps filled with 50% DMSO/50% phosphate-buffered saline.
(§3) Tumor volume was determined weekly by measuring with calipers (volume=height×width×depth). Mice were euthanized after 4 weeks of drug administration. 10 animals were used per group. At sacrifice tumors were removed and weighed. Part of the tumor was fixed for histologic examination of tumor morphology and part was frozen for RNA and protein analyses.

[2] = overall animal weight of treated nude mice; format: in vivo, mouse; conditions: darifenacin treatment
Procedure: as §2

Akt phosphorylation = Akt phosphorylation in tumors removed from treated mice; format: in vivo, mouse; conditions: tumors removed from darifenacin-treated mice
Procedure: as §3
(§4) ACh content of control tumor samples was 420±110 pmol/g which, corresponds to 4×10^−7 M, assuming uniform distribution in the tumor. These levels of ACh are high enough to increase MAPK phosphorylation.

SCLC cell lines = test: in vitro cell proliferation assay (Cell-Titer Blue); format: cell-based, human
Procedure: SCLC cell lines (HA-E, SV-E, LV-E, BK-T, HG-E, AD-A, LD-T, H69 (HTB-119), H82 (HTB-175), H146 (HTB 173), H187 (CRL-5804), H524 (CRL-5831), H526 (CRL-5811), H740 (CRL-5840), H841 (CRL-5845), H1048 (CRL-5853), H1105 (CRL-5856), H1417 (CRL-5869), H1694 (CRL-5888). H1836 (CRL-5898), H1876 (CRL-5902), H2029 (CRL-5913), H2195 (CRL-5931), and H2198 (CRL-5933)), were grown in RPMI 1640 medium (Mediatech, Herndon Va.) supplemented with 0-10% fetal bovine serum (Hyclone, Logan, Utah) and ITS (5 μg/ml insulin, 5 μg/ml transferrin, 5 ng/ml sodium selenite (BD Biosciences, San Jose, Calif.)) plus 100 units/ml penicillin, […] streptomycin, and […] amphotericin (Invitrogen, Carlsbad Calif.) at 37° C. in a humidified 5% CO2 atmosphere.
as §1

[3] = plasma darifenacin concentration in nude mice; format: in vivo, mouse; conditions: s.c. minipump; for concentration at 4 weeks: mouse, plasma, sc
Procedure: FIG. 4 is a bar graph showing the relation of nude mouse darifenacin dose to concentration of darifenacin achieved in mouse blood. Dashed lines show concentration of darifenacin obtained in humans treated with 30 mg extended release darifenacin per day.
as §2
Thus significant reduction in SCLC growth can be achieved at clinically relevant doses of M3 mAChR antagonists.

MAPK phosphorylation = MAPK phosphorylation in tumors removed from treated mice; format: in vivo, mouse; conditions: tumors removed from darifenacin-treated mice
Procedure: as §3, §4

H82 SCLC cells = H82 SCLC cells incubated with nicotine; FIG. 6
Procedure: H82 SCLC cells were incubated with nicotine for the times shown and secretion of ACh into the medium was measured.

[4] = tested on: lung, pancreas and esophagus; conditions: nicotine for 3 weeks vs control mice
Procedure: At the end of 3 weeks, bromodeoxy uridine (BrdU) will be injected ip, 50 mg/kg, then 24 hours later mice will be sacrificed and selected tissues removed to measure cell proliferation. Tissues removed will include lung, pancreas and esophagus, tumors of which are associated with smoking. Tissues will be sectioned and BrdU incorporation into cells determined so as to determine the number of replicating cells per section.

H82 cells [5] = test: H82 tumors in nude mice receiving nicotine (planned); format: in vivo, mouse; conditions: nicotine 2.0 mg/kg/day by minipump
Procedure: Nude mice are administered H82 cells as described in Example 3. […] Nicotine (nicotine bitartrate, Sigma) is dissolved in water at a concentration to deliver 2.0 mg/kg/day; and will be administered by a second minipump. Tumor volume will be determined weekly as described in the Examples above, and mice euthanized after 4 weeks of drug administration. At sacrifice tumors are removed and weighed. Part of the tumor can be fixed for histologic examination of tumor morphology and part frozen for RNA and protein analyses.

[6] = up to 10^−5 mol/L, nine days of treatment

C[N+]1(C)CCC(OC(=O)C(c2ccccc2)c2ccccc2)CC1.[I-] [4-DAMP, 4-diphenylacetoxy-N-methylpiperidine methiodide]
H82 cell proliferation (SCLC cell line H82; 10^−9 mol/L to 10^−5 mol/L, after nine days): significantly reduced cell proliferation

CCN(CC)CC1CCCCN1CC(=O)N1c2ccccc2C(=O)Nc2cccnc21 (centres unmarked) [AFDX-1116]
H82 cell proliferation (SCLC cell line H82; [6]): no detectable effect

Cl.O[Si](CCCN1CCCCC1)(c1ccc(F)cc1)C1CCCCC1 (centres unmarked) [P-F-HHSiD, hexahydro-sila-difenidol hydrochloride, p-fluoro analog]
H82 cell proliferation (SCLC cell line H82; 10^−5 mol/L, after nine days): significantly reduced cell proliferation

CN1[C@@H]2CC[C@H]1C[C@@H](OC(=O)C(CO)c1ccccc1)C2 (some centres unmarked) [atropine]
tumor growth (tumor weight) (H82 cells [1]; 10 mg/kg per day s.c. minipump, weeks 1-5, FIG. 5): do not reduce or inhibit tumor growth

NC(=O)C(c1ccccc1)(c1ccccc1)[C@@H]1CCN(CCc2ccc3c(c2)CCO3)C1 [darifenacin, (S)-2-{1-[2-(2,3-dihydrobenzofuran-5-yl)ethyl]-3-pyr-rolidinyl}-2,2-diphenyl-acetamide]
overall animal weight [2]: No significant effects | Akt phosphorylation in the tumors (Akt phosphorylation): no significant effects | cell growth in five SCLC cell lines (SCLC cell lines; 10 μM darifenacin, H187, H1048, H1836, H1876, H520, FIGS. 1A-E): responsive | SCLC cell lines with significantly reduced proliferation (SCLC cell lines; 20 SCLC cell lines tested): 14 out of 20 | proliferation of non-responding cell lines (SCLC cell lines; cell lines LV-E, AD-A, L-D-T, H69, H1417, H2198): not affected | concentration at 4 weeks ([3]; 3 mg/kg per day, read-out: average plasma darifenacin concentration at which tumor growth was reduced): 9.4 ± 0.3 ng/mL | concentration at 4 weeks ([3]; FIG. 4, read-out: plasma darifenacin concentrations at which inhibition of tumor growth was achieved): 3 to 10 ng/mL | average plasma darifenacin concentration [3]: ~25 nM | average plasma darifenacin concentration at which tumor growth was reduced [3]: 9.4 ± 0.97 ng/mL | tumor size (volume by calipers) (H82 cells [1]; 0.3, 1.0 and 3.0 mg/kg per day s.c. minipump, weeks 1-5, FIG. 2): dosewise-reduction | histology of tumor cells compared to controls (H82 cells [1]; highest dose of darifenacin): larger in size, with increased-cytoplasm and less nuclear molding | inhibition of tumor size, statistics (H82 cells [1]; largest dose (3.0 mg/kg per day), FIG. 2): statistically significant | tumor weight (H82 cells [1]; tumors removed and weighed at end of 5 weeks, FIG. 3): significant decrease | levels of MAPK phosphorylation in the tumors (MAPK phosphorylation): significantly decreased

CN1CCCC1c1cccnc1 (centres unmarked) [nicotine]
acetylcholine secretion into the medium (H82 SCLC cells): stimulates acetylcholine secretion | replicating cells in tissue (BrdU incorporation) [4]: more replicating cells | effect of nicotine on tumor growth (H82 cells [5]): grow faster

CN1CCN(CC(=O)N2c3ccccc3C(=O)Nc3cccnc32)CC1 [pirenzepine]
H82 cell proliferation (SCLC cell line H82; [6]): no detectable effect

O=C(O[C@H]1C[C@H]2CC[C@@H](C1)[N+]21CCCC1)C(O)(c1ccccc1)c1ccccc1 [trospium]
tumor growth (H82 cells [1]; stated for nonselective antagonists, no dose or test described): do not reduce or inhibit tumor growth

Reference: US20090062326A1, “M3 MUSCARINIC RECEPTOR ANTAGONISTS FOR TREATMENT OF M3 MUSCARINIC RECEPTOR-EXPRESSING TUMORS” (priority 2006, published 2009)
